Legend:
A549 cells = assay: Cytotoxicity assay (CCK-8), A549; format: cell-based
Description: A549 cells were digested and collected the day before treatment and the cell concentration was adjusted to 2*10^5 cells/mL, 200 μL cell culture medium with a concentration of 2*10^5 cells/mL was added to the 96-well plate, resulting in approximately 4*10^4 cells per well in the 96-well plate. Digested and collected DC2.4 cells and adjusted the cell concentration to 1*10^5 cells/mL, added 200 μL cell culture medium with a concentration of 1*10^5 cells/mL to the 96-well plate, so that the number of cells per well in the 96-well plate is approximately 2*10^4. The cells were incubated in a cell culture incubator (Esco Micro Pte Ltd, Singapore, CLM-170B-8-NF) at 37° C. 5% CO2 for 24 h.
On the day of cell treatment, the medium (Thermo Fisher Scientific) was aspirated from the 96-well plate, 200 μL of PBS was added to each well to rinse the cells and then the PBS (Thermo Fisher Scientific) was removed, and 180 μL of opti-MEM (Thermo Fisher Scientific) was added to each well of the treatment group.
Different volumes of the preparation were taken and diluted by adding the buffer used for the preparation or the buffer used for dialysis, and four dosing concentrations were prepared for each preparation, and 20 μL of the diluted nanopreparation was added to each well of a 96-well plate (3 replicate wells for each concentration), and the dosing concentrations of the preparation were about 50 ng mRNA/well, 100 ng mRNA/well, 200 ng mRNA/well, and 300 ng mRNA/well, respectively.
The 96-well cell culture plate was placed in a cell culture incubator and incubated at 37° C. 5% CO2 for 4 h. The medium was sucked up, and 200 μL of DMEM complete medium was added to each well and incubated for 20 h for detection.
Diluted CCK-8 detection reagent (Shanghai Beyotime Biotechnology Co., Ltd.) masterbatch (900 μL complete medium+100 μL CCK-8 detection reagent) with DMEM complete medium at 9:1 to prepare CCK-8 working solution.
Take out the 96-well cell culture plate and removed the supernatant. Before detection, the 96-well plate was added with 100 μL CCK-8 working solution, incubated in the cell culture incubator at 37° C. 5% CO2 for 2 h, and analyzed by plate reader. The cell viability was calculated to reflect the cytotoxicity.

[1] = Particle size and PDI by dynamic light scattering; format: physicochemical; settings: Table 2; for Particle size (nm): LNP formulation with mRNA; for PDI: polydispersity value
In short: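 Lipid nanoparticle solution (about 0.04 mg/mL mRNA) diluted in ultrapure water and particle size measured by dynamic light scattering on a Malvern instrument. Sample then further diluted with water for potential measurement.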

mice = assay: In vivo delivery of FLuc-mRNA lipid nanoparticle preparations in mice (IVIS imaging); set-up: In vivo IVIS / In vivo IVIS (liver) / In vivo IVIS (spleen): unit not given here
In short: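 FLuc-mRNA LNPs given intramuscularly into thigh rectus femoris or intravenously via tail vein, about 75 μL per mouse, 3 mice. D-Luciferin (200 μL, 15 mg/mL) injected i.p. 10–15 min before IVIS imaging at set times after dosing.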

[2] = Stability of LNP formulations after storage; format: physicochemical; settings: both formulations; physical stability and in vivo delivery efficiency
Description: Excipients and/or cryoprotectants, such as sucrose, can be added to the nucleic acid lipid nanoparticle preparation obtained in step 6 or to the nucleic acid lipid nanoparticle preparation obtained after dialysis in step 7. As an example, 40% sucrose (Aladdin Reagent (Shanghai) Co., Ltd.) was added to the nucleic acid lipid nanoparticle preparation with the volume ratio of 3:1, which is mixed homogeneously to obtain nucleic acid lipid nanoparticle preparation containing 10% sucrose, and further aliquoted into ribozyme-free centrifuge tubes and stored in an ice box, 4° C., −20° C., and/or −80° C. refrigerator for later use. Physicochemical property measurement and in vivo effect validation of the lipid nanoparticles were performed after thawing and returning to room temperature after storage for the indicated time.

[3] = Potential characterization of nanoparticle preparations; format: physicochemical
Description: 20 μL of the nucleic acid lipid nanoparticle solution (containing about 0.04 mg/mL mRNA) was taken and added with 780 μL of ultrapure water, used a pipette tip to gently blow and mix, and the potential of the nanopreparation was detected by Malvern particle sizer (model ZEN3700). 27.5 μL nucleic acid lipid nanoparticle solution (containing about 0.04 mg/mL mRNA) was taken and added with 200 μL ultrapure water. A pipette tip was used to gently blow the sample and mix well. The particle size of the nanopreparation was detected by Malvern Dynamic Light Scattering Instrument (Malvern Instruments Ltd., ZEN3700, UK). After the detection, the sample was recovered to an EP tube, and 600 μL of ultrapure water was added, gently blown with a pipette tip, and the potential of the nanopreparation was measured by a Malvern particle size meter.

[4] = molar ratio 1.50:11.50:38.50:48.50, N/P 24
[5] = molar ratio 1.50:20.00:33.50:45.00, N/P 40
[6] = molar ratio 1.71:12.98:45.31:40.00, N/P 40

SMILES: CCCCCCCCCCCCOC(=O)C(O)CN(CCCN1CCN(CCCN(CC(O)C(=O)OCCCCCCCCCCCC)CC(O)C(=O)OCCCCCCCCCCCC)CC1)CC(O)C(=O)OCCCCCCCCCCCC (stereo not drawn) [Compound L0191]
- cellular toxicity (in words) (A549 cells; all tested formulations, even at high doses, e.g., 300 ng/well): low to no cellular toxicity
- A549 cellular tox (% cells alive) (A549 cells; formulation No. 1, 50 ng/well): 103.42%
- A549 cellular tox (% cells alive) (A549 cells; formulation No. 1, 100 ng/well): 105.39%
- A549 cellular tox (% cells alive) (A549 cells; formulation No. 1, 200 ng/well): 103.90%
- A549 cellular tox (% cells alive) (A549 cells; formulation No. 1, 300 ng/well): 103.50%
- A549 cellular tox (% cells alive) (A549 cells; formulation No. 2, 50 ng/well): 103.82%
- A549 cellular tox (% cells alive) (A549 cells; formulation No. 2, 100 ng/well): 105.86%
- A549 cellular tox (% cells alive) (A549 cells; formulation No. 2, 200 ng/well): 109.06%
- A549 cellular tox (% cells alive) (A549 cells; formulation No. 2, 300 ng/well): 104.35%
- Particle size (nm) [1, 4]: 75.33 ± 0.78 nm
- Particle size (nm) [1, 5]: 70.87 ± 0.35 nm
- Particle size (nm) [1, 6]: 92.00 ± 0.39 nm
- PDI [1, 4]: 0.10 ± 0.01
- PDI [1, 5]: 0.17 ± 0.01
- PDI [1, 6]: 0.15 ± 0.02
- In vivo IVIS (mice; Table 2, IM, whole body scan): 8.97 × 10^7
- In vivo IVIS (liver) (mice; Table 2, IV, liver): 2.77 × 10^8
- In vivo IVIS (spleen) (mice; Table 2, IV, spleen): 1.03 × 10^8
- In vivo IVIS (mice; Table 4, IM): 2.12 × 10^7
- In vivo IVIS (mice; Table 4, IV): 9.64 × 10^8
- in vivo delivery efficiency as compared to the benchmark compound SM102 (mice; certain formulations, Table 2): superior in vivo delivery efficiency
- stability after storage under different conditions [2]: excellent stability
- Zeta potential ([3]; formulation No. 1, molar ratio 1.50:20:33.50:45.00): 11.30 ± 0.69
- Zeta potential ([3]; formulation No. 2, molar ratio 1.50:11.50:38.50:48.50): 12.67 ± 0.61

Source: patent US12599560B2, “Lipids and lipid nanoparticle formulations” (Longuide Biopharma Corporation, priority 2023, dated 2026)
